Reference: patent US20260207620A1, “SOLID DISPERSION OF COMPOUND HAVING P2X4 RECEPTOR ANTAGONISTIC ACTION” (NIPPON CHEMIPHAR CO., LTD., priority 2023, published 2026)

How the values were obtained:
[1] = solubility in water; type: physicochemical
[2] = PK test, solid dispersions E and B of compound F48, single oral dose, fasted male Wistar rats; type: in vivo; conditions: Wistar (Crlj:WI), rat, compound F48 in plasma, 10 mg/kg (as compound F48) p.o. once, n=3
Experimental: Solid dispersions E and B were prepared using a rotary evaporator according to the following method. The compound F48 was dissolved in THF to result in 2.5 mg/mL. By the same procedure as above, each polymer was prepared to result in 25 mg/mL. Next, the compound F48 solution was added to the polymer solution with stirring such that the weight ratio between the compound F48 and the carrier was 1:25. The resulting mixture was transferred to a recovery flask, and the organic solvent was then removed using a rotary evaporator (Yamato Scientific Co., Ltd., distillation apparatus). The recovery flask was transferred to a desiccator and dried under reduced pressure using a vacuum pump for approximately 16 hours, thereby obtaining solid dispersions E and B. […]
Blood samples were collected in a time-dependent manner before oral administration and at 0.5, 1, 3, 5, 8, and 24 hours after oral administration. The concentration of the compound F48 in the obtained plasma was measured by HPLC (Hitachi High-Technologies Corporation). The time to reach the maximum plasma concentration (Tmax), the maximum plasma concentration (Cmax), and the area under the plasma concentration-time curve (AUClast) were calculated from the plasma concentration transition (Table 2).

[3] = PK test of compound F2 and its solid dispersion, oral, fasted male Wistar rats; type: in vivo; conditions: Wistar (Crlj:WI), rat, compound F2 in plasma, 10 mg/kg (as compound F2) p.o., n=3
Experimental: Fasted male rats (8 weeks old, Wistar (Crlj:WI), Charles River Laboratories Japan, Inc.) were orally administered a crystalline form of the compound F2 suspended in a 1% methylcellulose aqueous solution or a solid dispersion comprising the compound F2 suspended in water for injection. The dosage of the compound F2 in each group was 10 mg/kg (n=3 in each group). Blood samples were collected in a time-dependent manner at 0.5, 1, 2, 4, 6, 8, and 24 hours after oral administration. The concentration of the compound F2 in the obtained plasma was measured by LC-MS/MS (MS/MS: API4000, SCIEX, LC: LC-20AD series, Shimadzu Corporation). Tmax, Cmax, and AUClast were calculated from the plasma concentration transition (Table 5).

CCc1ccccc1C(=O)Nc1ccc(N2C(=O)CC(=O)Nc3c2ccc2ccccc32)cc1 [Compound F57, 5-[4-[(2-ethylbenzoyl)amino]phenyl]-1H-naphtho [1,2-b][1,4]diazepine-2,4 (3H,5H)-dione]
solubility in water [1]: poorly soluble in water

O=C1CC(=O)N(c2ccc(NC(=O)c3ccccc3I)cc2)c2ccc3ccccc3c2N1 [Control, 5-[4-(2-iodobenzoylamino)phenyl]-1H-naphtho [1,2-b][1,4]diazepine-2,4 (3H,5H)-dione]
Cmax [2]: < 25 ng/mL

O=C1CC(=O)N(c2ccc(NC(=O)c3ccccc3I)cc2)c2ccc3ccccc3c2N1 [Compound F48, 5-[4-(2-iodobenzoylamino)phenyl]-1H-naphtho [1,2-b][1,4]diazepine-2,4 (3H,5H)-dione]
solubility in water [1]: poorly soluble in water

O=C1CC(=O)N(c2ccc(NC(=O)c3ccccc3C(F)(F)F)cc2)c2ccc3ccccc3c2N1 [Compound F2, 5-[4-[2-(trifluoromethyl)benzoyl]aminophenyl]-1H-naphtho [1,2-b][1,4]diazepine-2,4 (3H,5H)-dione]
solubility in water [1]: poorly soluble in water | AUC(0-t) [3]: 5710 ± 520 ng·h/mL | Cmax [3]: 386 ± 56 ng/mL | Tmax [3]: 4 h
